Experiment in all cases: relative viability (nuclei count vs DMSO), 5 days (fraction); higher = more cells survive
Compound in the test “Vismodegib + Luminespib”: CS(=O)(=O)c1ccc(C(=O)Nc2ccc(Cl)c(-c3ccccn3)c2)c(Cl)c1 [Vismodegib] + CCNC(=O)c1noc(-c2cc(C(C)C)c(O)cc2O)c1-c1ccc(CN2CCOCC2)cc1 [Luminespib] (partner 0.01 µM)
The method, boiled down: (§1)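 A single step with final 0.05% Triton X-100, 1% formaldehyde and 1 ug/ml Hoechst fixed the cells and stained nuclei 5 days after treatment. Lung cancer cell lines in 1536-well plates had been treated by pin tool the day after seeding with one drug alone or a fixed anchor-drug dose plus five library-drug doses (not always all listed) in √10 steps, and nuclei were counted on 4× images. Relative viability is the ratio of nuclei in treated wells to nuclei in vehicle wells, taken as the median of duplicate plates.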

Compound in the test “VE-821 + Phenformin”: CS(=O)(=O)c1ccc(-c2cnc(N)c(C(=O)Nc3ccccc3)n2)cc1 [VE-821] + N=C(N)NC(=N)NCCc1ccccc1 [Phenformin] (partner 250 µM)
The method, boiled down: as §1

Compound in the test “Ruxolitinib + Lapatinib”: N#CC[C@H](C1CCCC1)n1cc(-c2ncnc3[nH]ccc23)cn1 [Ruxolitinib] + CS(=O)(=O)CCNCc1ccc(-c2ccc3ncnc(Nc4ccc(OCc5cccc(F)c5)c(Cl)c4)c3c2)o1 [Lapatinib] (partner 2 µM)
In short, it runs like this:
as §1

Compound in the test “Vismodegib + Crizotinib”: CS(=O)(=O)c1ccc(C(=O)Nc2ccc(Cl)c(-c3ccccn3)c2)c(Cl)c1 [Vismodegib] + C[C@@H](Oc1cc(-c2cnn(C3CCNCC3)c2)cnc1N)c1c(Cl)ccc(F)c1Cl [Crizotinib] (partner 1 µM)
The method, boiled down: as §1

Relative viability data for 7 cell lines are collected here from the supplement of paper PMC10307832.

For NCI-H3122, the relative viability with Vismodegib + Luminespib (first compound 0.08 µM) was 0.109; with Vismodegib + Luminespib (first compound 0.253 µM) it was 0.088; with Vismodegib + Luminespib (first compound 0.8 µM), 0.0658; with Vismodegib + Luminespib (first compound 2.53 µM), 0.073; with Vismodegib + Luminespib (first compound 8 µM) it was 0.0765; with VE-821 + Phenformin (first compound 0.08 µM), 0.394. In addition, the relative viability with VE-821 + Phenformin (first compound 0.253 µM) was found to be 0.348; with VE-821 + Phenformin (first compound 0.8 µM), 0.354; with VE-821 + Phenformin (first compound 2.53 µM), 0.349; with VE-821 + Phenformin (first compound 8 µM), 0.332; in the test with Ruxolitinib + Lapatinib (first compound 0.08 µM) it was 0.928; with Ruxolitinib + Lapatinib (first compound 0.253 µM) it was 1.04. In addition, the relative viability with Ruxolitinib + Lapatinib (first compound 0.8 µM) turned out to be 0.98; with Ruxolitinib + Lapatinib (first compound 2.53 µM) it was 0.848; with Ruxolitinib + Lapatinib (first compound 8 µM), 0.934; in the test with Vismodegib + Crizotinib (first compound 0.08 µM), 0.307; with Vismodegib + Crizotinib (first compound 0.253 µM), 0.286; with Vismodegib + Crizotinib (first compound 0.8 µM) it was 0.255. Moreover, the relative viability worked out at 0.295 in the test with Vismodegib + Crizotinib (first compound 2.53 µM) and 0.268 with Vismodegib + Crizotinib (first compound 8 µM).
Consider PC-3 [JPC-3], for which the relative viability was found to be 0.737 with Vismodegib + Luminespib (first compound 0.08 µM); 0.651 with Vismodegib + Luminespib (first compound 0.253 µM); 0.689 with Vismodegib + Luminespib (first compound 0.8 µM); 0.653 in the test with Vismodegib + Luminespib (first compound 2.53 µM); 0.745 in the test with Vismodegib + Luminespib (first compound 8 µM); 0.455 with VE-821 + Phenformin (first compound 0.08 µM). In addition, the relative viability with VE-821 + Phenformin (first compound 0.253 µM) is 0.504; in the test with VE-821 + Phenformin (first compound 0.8 µM) it was 0.448; with VE-821 + Phenformin (first compound 2.53 µM), 0.469; with VE-821 + Phenformin (first compound 8 µM) it was 0.451; with Ruxolitinib + Lapatinib (first compound 0.08 µM) it was 0.452; in the test with Ruxolitinib + Lapatinib (first compound 0.253 µM), 0.431. The relative viability is 0.46 with Ruxolitinib + Lapatinib (first compound 0.8 µM); 0.488 in the test with Ruxolitinib + Lapatinib (first compound 2.53 µM); 0.505 in the test with Ruxolitinib + Lapatinib (first compound 8 µM); 0.93 with Vismodegib + Crizotinib (first compound 0.08 µM); 0.991 with Vismodegib + Crizotinib (first compound 0.253 µM); 0.964 with Vismodegib + Crizotinib (first compound 0.8 µM). The results for the relative viability in the test with Vismodegib + Crizotinib (first compound 2.53 µM) and with Vismodegib + Crizotinib (first compound 8 µM) were 0.93 and 0.956, respectively.
For the cell line PC-14, the relative viability with Vismodegib + Luminespib (first compound 0.08 µM) turned out to be 0.132; in the test with Vismodegib + Luminespib (first compound 0.253 µM) it was 0.137; with Vismodegib + Luminespib (first compound 0.8 µM), 0.151; in the test with Vismodegib + Luminespib (first compound 2.53 µM) it was 0.165; in the test with Vismodegib + Luminespib (first compound 8 µM), 0.14; with VE-821 + Phenformin (first compound 0.08 µM), 0.648. The relative viability in the test with VE-821 + Phenformin (first compound 0.253 µM) amounted to 0.528; with VE-821 + Phenformin (first compound 0.8 µM), 0.675; with VE-821 + Phenformin (first compound 2.53 µM), 0.574; in the test with VE-821 + Phenformin (first compound 8 µM) it was 0.449; with Ruxolitinib + Lapatinib (first compound 0.253 µM) it was 0.243; with Ruxolitinib + Lapatinib (first compound 0.8 µM), 0.347. The relative viability stood at 0.316 in the test with Ruxolitinib + Lapatinib (first compound 2.53 µM); 0.313 with Ruxolitinib + Lapatinib (first compound 8 µM); 0.835 with Vismodegib + Crizotinib (first compound 0.08 µM); 0.777 with Vismodegib + Crizotinib (first compound 0.253 µM); 0.971 with Vismodegib + Crizotinib (first compound 0.8 µM); 0.914 with Vismodegib + Crizotinib (first compound 2.53 µM). For the same cell line, the relative viability with Vismodegib + Crizotinib (first compound 8 µM) was determined as 0.839.
Turning to RERF-LC-KJ, the relative viability with Vismodegib + Luminespib (first compound 0.08 µM) was found to be 1.18; in the test with Vismodegib + Luminespib (first compound 0.253 µM) it was 1.21; in the test with Vismodegib + Luminespib (first compound 0.8 µM) it was 1.16; in the test with Vismodegib + Luminespib (first compound 2.53 µM) it was 1.24; in the test with Vismodegib + Luminespib (first compound 8 µM) it was 1.22; with VE-821 + Phenformin (first compound 0.08 µM), 0.397. The relative viability is 0.361 with VE-821 + Phenformin (first compound 0.253 µM); 0.377 with VE-821 + Phenformin (first compound 0.8 µM); 0.407 with VE-821 + Phenformin (first compound 2.53 µM); 0.41 with VE-821 + Phenformin (first compound 8 µM); 0.926 with Ruxolitinib + Lapatinib (first compound 0.08 µM); 0.859 with Ruxolitinib + Lapatinib (first compound 0.253 µM). In addition, the relative viability in the test with Ruxolitinib + Lapatinib (first compound 0.8 µM) was 0.898; in the test with Ruxolitinib + Lapatinib (first compound 2.53 µM), 0.909; in the test with Ruxolitinib + Lapatinib (first compound 8 µM), 0.855; in the test with Vismodegib + Crizotinib (first compound 0.08 µM), 0.821; in the test with Vismodegib + Crizotinib (first compound 0.253 µM), 0.813; with Vismodegib + Crizotinib (first compound 0.8 µM), 0.81. Further, the relative viability is 0.848 with Vismodegib + Crizotinib (first compound 2.53 µM) and 0.82 with Vismodegib + Crizotinib (first compound 8 µM).
With SK-LU-1, the relative viability with Vismodegib + Luminespib (first compound 0.08 µM) is 0.206; with Vismodegib + Luminespib (first compound 0.253 µM) it was 0.201; with Vismodegib + Luminespib (first compound 0.8 µM), 0.22; with Vismodegib + Luminespib (first compound 2.53 µM), 0.216; with Vismodegib + Luminespib (first compound 8 µM) it was 0.223; in the test with VE-821 + Phenformin (first compound 0.08 µM), 0.675. The relative viability in the test with VE-821 + Phenformin (first compound 0.253 µM) came out at 0.528; in the test with VE-821 + Phenformin (first compound 0.8 µM) it was 0.497; with VE-821 + Phenformin (first compound 2.53 µM), 0.383; with VE-821 + Phenformin (first compound 8 µM), 0.216; with Ruxolitinib + Lapatinib (first compound 0.08 µM), 0.973; with Ruxolitinib + Lapatinib (first compound 0.253 µM), 0.991. Moreover, the relative viability in the test with Ruxolitinib + Lapatinib (first compound 0.8 µM) was 0.896; in the test with Ruxolitinib + Lapatinib (first compound 2.53 µM) it was 0.819; in the test with Ruxolitinib + Lapatinib (first compound 8 µM), 0.693; with Vismodegib + Crizotinib (first compound 0.08 µM) it was 1.02; with Vismodegib + Crizotinib (first compound 0.253 µM), 0.817; in the test with Vismodegib + Crizotinib (first compound 0.8 µM), 0.874. For the same cell line, the relative viability is 0.881 with Vismodegib + Crizotinib (first compound 2.53 µM) and 0.997 in the test with Vismodegib + Crizotinib (first compound 8 µM).
For SK-MES-1, the relative viability was found to be 0.775 with Vismodegib + Luminespib (first compound 0.08 µM); 0.765 with Vismodegib + Luminespib (first compound 0.253 µM); 0.849 with Vismodegib + Luminespib (first compound 0.8 µM); 0.853 with Vismodegib + Luminespib (first compound 2.53 µM); 0.922 with Vismodegib + Luminespib (first compound 8 µM); 0.708 with VE-821 + Phenformin (first compound 0.08 µM). The relative viability with VE-821 + Phenformin (first compound 0.253 µM) was found to be 0.626; with VE-821 + Phenformin (first compound 0.8 µM), 0.718; in the test with VE-821 + Phenformin (first compound 2.53 µM) it was 0.628; in the test with VE-821 + Phenformin (first compound 8 µM), 0.445; in the test with Ruxolitinib + Lapatinib (first compound 0.08 µM), 0.493; with Ruxolitinib + Lapatinib (first compound 0.253 µM), 0.412. The relative viability came out at 0.448 with Ruxolitinib + Lapatinib (first compound 0.8 µM); 0.474 in the test with Ruxolitinib + Lapatinib (first compound 2.53 µM); 0.42 with Ruxolitinib + Lapatinib (first compound 8 µM); 0.94 with Vismodegib + Crizotinib (first compound 0.08 µM); 0.936 with Vismodegib + Crizotinib (first compound 0.253 µM); 0.923 with Vismodegib + Crizotinib (first compound 0.8 µM). In addition, the relative viability with Vismodegib + Crizotinib (first compound 2.53 µM) stood at 0.969; with Vismodegib + Crizotinib (first compound 8 µM), 1.07.
Turning to SW 1573, the relative viability was 0.216 with Vismodegib + Luminespib (first compound 0.253 µM); 0.174 in the test with Vismodegib + Luminespib (first compound 0.8 µM); 0.215 in the test with Vismodegib + Luminespib (first compound 2.53 µM); 0.207 with Vismodegib + Luminespib (first compound 8 µM); 0.405 with VE-821 + Phenformin (first compound 0.08 µM); 0.293 in the test with VE-821 + Phenformin (first compound 0.253 µM). Besides, the relative viability is 0.358 in the test with VE-821 + Phenformin (first compound 0.8 µM); 0.456 with VE-821 + Phenformin (first compound 2.53 µM); 0.162 in the test with VE-821 + Phenformin (first compound 8 µM); 1.05 with Ruxolitinib + Lapatinib (first compound 0.08 µM); 0.99 with Ruxolitinib + Lapatinib (first compound 0.253 µM); 1.16 with Ruxolitinib + Lapatinib (first compound 0.8 µM). The relative viability with Ruxolitinib + Lapatinib (first compound 2.53 µM) was 1.07; with Ruxolitinib + Lapatinib (first compound 8 µM), 1.09; with Vismodegib + Crizotinib (first compound 0.08 µM) it was 0.895; in the test with Vismodegib + Crizotinib (first compound 0.253 µM), 0.755; in the test with Vismodegib + Crizotinib (first compound 0.8 µM), 0.827; in the test with Vismodegib + Crizotinib (first compound 2.53 µM), 0.774. Besides, the relative viability with Vismodegib + Crizotinib (first compound 8 µM) is 0.956.
